These are literature values, as cited in US20060105063A1, “Synergic combination of compositions containing aloe vera isolates and their therapeutic application” (priority 2004, published 2006).

The structures appear in SMILES notation.

Series [1] deals with animals ingesting a diet composed of 20% Fucose.

`C[C@H](O)[C@@H](O)[C@@H](O)[C@H](O)C=O` [Fucose]: the “Oral dose considered safe” value (healthy 150-pound adult) is no more than 34 grams. Besides, the “Rate of excretion, mainly in the urine” value (humans) is reported as “approximately 17 micrograms per minute”. The “Time to elimination from the bloodstream” value (oral, after maximum blood levels) is “eight to twelve”. In series [1] (Fucose-treated rats), the “Microscopic examination of liver, kidney, pancreas and sternal bone marrow” value is “no abnormalities”. The Oral toxicity result in series [1] (animals ingesting a diet composed of 20% Fucose) was “reduce nerve conduction velocity as well as collagen production”.
